From patent US7816361B2, “Immuno inhibitory pyrazolone compounds” (Medigene Limited, priority 2003, dated 2010)
pEC50, pKd: −log10 of the molar value. Where two headings read alike, the source gives them in different places.

What was measured:
CD80-CD28 interaction = target: T1, CD80-CD28 interaction (Homo sapiens, UniProt P33681); assay: Homogenous Time Resolved Fluorescence (HTRF) assay, cell free; type: binding; conditions: inhibition of CD80-CD28 interaction; concentration series 100 μM-1.7 nM; 4 hours at room temperature; read-out: Activity Rating (EC50) in the HTRF assay
T1 sequence (P33681 35-242 limits assumed): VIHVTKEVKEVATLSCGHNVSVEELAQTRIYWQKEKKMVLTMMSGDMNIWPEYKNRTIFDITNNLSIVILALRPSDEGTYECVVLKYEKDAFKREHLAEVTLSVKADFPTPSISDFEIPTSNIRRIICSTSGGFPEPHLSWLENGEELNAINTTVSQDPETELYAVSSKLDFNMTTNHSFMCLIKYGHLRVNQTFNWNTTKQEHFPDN
Procedure: Homogenous Time Resolved Fluorescence Assay
The examples described above were tested in a cell free Homogenous Time Resolved Fluorescence (HTRF) assay to determine their activity as inhibitors of the CD80-CD28 interaction.
In the assay, europium and allophycocyanin (APC) are associated with CD28 and CD80 indirectly (through antibody linkers) to form a complex, which brings the europium and APC into close proximity to generate a signal. The complex comprises the following six proteins: fluorescent label 1, linker antibody 1, CD28 fusion protein, CD80 fusion protein, linker antibody 2, and fluorescent label 2. The table below describes these reagents in greater detail.
On formation of the complex, europium and APC are brought into proximity and a signal is generated.
Non-specific interaction was measured by substituting a mouse Fab fragment (C215) for the CD80 mouse Fab fragment fusion protein (1.9 μg/ml). The assay was carried out in black 384 well plates in a final volume of 30 μl. Assay buffer: 50 mM Tris-HCl, 150 mM NaCl pH7.8, containing 0.1% BSA (w/v) added just prior to use.
Compounds were added to the above reagents in a concentration series ranging between 100 μM-1.7 nM. The reaction was incubated for 4 hours at room temperature. Dual measurements were made using a Wallac Victor 1420 Multilabel Counter. First measurement: excitation 340 nm, emission 665 nm, delay 50 μs, window time 200 μs. second measurement: excitation 340 nm, emission 615 nm, delay 50 μs, window time 200 μs. Counts were automatically corrected for fluorescence crossover, quenching and background. The EC50 activities of compounds tested are recorded as: EC50: *=>10 μM, **=1-10 μM, ***=<1 μM.

[1] = target: T2, Biotinylated human CD80 (hCD80-BT) (Homo sapiens, UniProt P33681); assay: Biacore biomolecular interaction analysis (BIAcore S51); type: binding; conditions: BIAcore S51, immobilised hCD80-BT
T2 construct: biotin (biotinylation)
T2 sequence (P33681 35-242 limits assumed): T1 sequence (P33681 35-242 limits assumed)
Excerpt: Assay Protocols The Use of Biacore Biomolecular Interaction Analysis
Biotinylated human CD80 (hCD80-BT) is a recombinant soluble form of a membrane bound receptor molecule (CD80) which binds to CD28 to initiate T cell activation. The interaction between CD80 and CD28 has been extensively investigated (Collins et al., 2002). Biotinlyated human HLA-A2-tax is the recombinant soluble form of a membrane bound receptor molecule that has been used in this example as a control protein, and is not expected to interact with the compounds.
The BIAcore S51™ system was used for screening the compounds of Examples 1-4 above. A series S sensor chip CM5 was docked onto the BIAcore S51™. Streptavidin was coupled to the carboxymethyl surface using standard amine coupling. The chip surface was activated with 0.2M EDC/0.05M NHS, followed by binding of streptavidin (0.25 mg/ml in 10 mM sodium acetate pH 5.0) and saturation of unoccupied sites with […].
The BIAcore S51 sensor chip has two separate sensor spots for immobilisation of proteins. hCD80-BT was immobilised on the streptavidin-coated surface of one sensor spot until a response of approximately 3000 RU was observed. A protein to control for non-specific binding of the compound was immobilised on a second sensor spot. The control protein used for these experiments was a biotinylated, soluble form of the human HLA protein.
Dilution series of compounds (1000 nM-0.05 nM) were prepared in running buffer (10 mM, pH 7.4, 150 mM NaCl, 0.005% P20; 5% DMSO).
BIAcore S51™ was run at a flow rate of 30 μl/min using running buffer. Compounds and DMSO standard solutions for correction of data for solvent effects were injected. Data were recorded automatically and were analysed using BIAcore S51 Evaluation software.

[2] = tested on: IL-2 production by human Jurkat T cells (with Raji cells, anti-CD3); assay: Inhibition of production of interleukin-2 (IL-2) by human Jurkat T cells; type: cell-based; conditions: 5 hours
Procedure: Inhibition of Production of Interleukin-2 (IL-2) by Human Jurkat T Cells.
Human Raji cells were dispensed at a concentration of 2×10^5 cells per well in RPMI-1640 medium supplemented with 10% fetal calf serum, 1% penicillin/streptomycin, 1% glutamine (RPMI medium) in a 96-well round bottom microtitre plate. Compounds under investigation (dissolved in 100% DMSO) were diluted to eight-fold the desired final concentration in RPMI medium and added to the required final concentration for a total volume of 200 μl per well. After 20 minutes incubation at 37° C., Jurkat T cells were added at a concentration of 2×10^5 cells per well. Monoclonal antibody to CD3 (UCHT1, R&D Systems) was added to the cultures at a final concentration of 1 μg per ml, and where indicated, monoclonal antibody to CD28 (CD28.2, BD-Pharmingen) was also added at a concentration of 2.5 μg per ml. Cells were cultured at 37° C. for 5 hours, after which the plates were centrifuged and the supernatants harvested for IL-2 ELISA assay using the IL-2 Eli-pair kit (DIACLONE Research, Besancon, France) according to the manufacturers instructions.

[3] = target: T2, Biotinylated human CD80 (hCD80-BT); conditions: endogenous protein ligand CD28, cited from earlier work

Compound | pEC50 (CD80-CD28 interaction) | further results
CN1C(C)(C)CC(NC(=O)c2ccc(-n3[nH]c(-c4ccno4)cc3=O)cc2)CC1(C)C [Example 2, 4-(3-Isoxazol-5-yl-5-oxo-2,5-dihydro-pyrazol-1-yl)-N-(1,2,2,6,6-pentamethyl-piperidin-4-yl)-benzamide] | < 5.00 | 
Cc1c(-c2ccco2)[nH]n(-c2ccc(C(=O)NC3CC(C)(C)N(C)C(C)(C)C3)cc2)c1=O [Example 3, 4-(3-Furan-2-yl-4-methyl-5-oxo-2,5-dihydro-pyrazol-1-yl)-N-(1,2,2,6,6-pentamethyl-piperidin-4-yl)-benzamide] | < 5.00 | 
CN(C)CCCNC(=O)c1ccc(-n2[nH]c(-c3ccccc3)cc2=O)cc1 [Example 5] | 5.00 to 6.00 | 
O=C(NCCN1CCN(Cc2ccccc2)CC1)c1ccc(-n2[nH]c(-c3ccccc3)cc2=O)cc1 [Example 6] | < 5.00 | 
CN1C(C)(C)CC(NC(=O)c2ccc(-n3[nH]c(-c4ccccc4)cc3=O)cc2)CC1(C)C [Example 7] | 5.00 to 6.00 | pKd [1]: > 7.00; off-rate on CD80 [1]: 2×10^−2
O=C(NCCCCN1CCCC1)c1ccc(-n2[nH]c(-c3ccccc3)cc2=O)cc1 [Example 8] | > 6.00 | 
O=C(NCCCNC1CCCCC1)c1ccc(-n2[nH]c(-c3ccccc3)cc2=O)cc1 [Example 9] | 5.00 to 6.00 | 
CN(C)CCCNC(=O)c1ccc(-n2[nH]c(-c3ccccn3)cc2=O)cc1 [Example 10] | > 6.00 | 
CN(C)CCCNC(=O)c1ccc(-n2[nH]c(-c3ccco3)cc2=O)cc1 [Example 11] | > 6.00 | pKd [1]: > 7.00; off-rate on CD80 [1]: 2×10^−2
CN(C)CCCNC(=O)c1ccc(-n2[nH]c(-c3cccnc3)cc2=O)cc1 [Example 12] | 5.00 to 6.00 | 
O=C(NCCCNC1CCCCC1)c1ccc(-n2[nH]c(-c3ccccn3)cc2=O)cc1 [Example 13] | 5.00 to 6.00 | 
O=C(NCCCNC1CCCCC1)c1ccc(-n2[nH]c(-c3ccco3)cc2=O)cc1 [Example 14] | > 6.00 | 
O=C(NCCCNC1CCCCC1)c1ccc(-n2[nH]c(-c3cccnc3)cc2=O)cc1 [Example 15] | 5.00 to 6.00 | 
CN1C(C)(C)CC(NC(=O)c2ccc(-n3[nH]c(-c4ccccn4)cc3=O)cc2)CC1(C)C [Example 16] | > 6.00 | 
CN(C)CCCNC(=O)c1ccc(-n2[nH]c(-c3ccoc3)cc2=O)cc1 [Example 17] | 5.00 to 6.00 | 
O=C(NCCCNC1CCCCC1)c1ccc(-n2[nH]c(-c3ccoc3)cc2=O)cc1 [Example 18] | > 6.00 | 
CN1C(C)(C)CC(NC(=O)c2ccc(-n3[nH]c(-c4ccco4)cc3=O)cc2)CC1(C)C [Example 19] | > 6.00 | 

Compound | pEC50 (CD80-CD28 interaction) | further results
CN1C(C)(C)CC(NC(=O)c2ccc(-n3[nH]c(-c4ccoc4)cc3=O)cc2)CC1(C)C [Example 20] | 5.00 to 6.00 | 
O=C(NCCCCN1CCCC1)c1ccc(-n2[nH]c(-c3ccco3)cc2=O)cc1 [Example 21] | 5.00 to 6.00 | 
O=C(NCCCCN1CCCC1)c1ccc(-n2[nH]c(-c3ccoc3)cc2=O)cc1 [Example 22] | 5.00 to 6.00 | 
CN1C(C)(C)CC(NC(=O)c2ccc(-n3[nH]c(-c4cccnc4)cc3=O)cc2)CC1(C)C [Example 23] | 5.00 to 6.00 | 
O=C(NCCCCN1CCCC1)c1ccc(-n2[nH]c(-c3ccccn3)cc2=O)cc1 [Example 24] | > 6.00 | 
O=C(NCCCCN1CCCC1)c1ccc(-n2[nH]c(-c3cccnc3)cc2=O)cc1 [Example 25] | 5.00 to 6.00 | 
CN(C)CCCNC(=O)c1ccc(-n2[nH]c(-c3cccc(F)c3)cc2=O)cc1 [Example 26] | > 6.00 | inhibition at 30 µM [2]: 52%
O=C(NCCCNC1CCCCC1)c1ccc(-n2[nH]c(-c3cccc(F)c3)cc2=O)cc1 [Example 27] | 5.00 to 6.00 | 
CN1C(C)(C)CC(NC(=O)c2ccc(-n3[nH]c(-c4cccc(F)c4)cc3=O)cc2)CC1(C)C [Example 28] | > 6.00 | 
O=C(NCCCCN1CCCC1)c1ccc(-n2[nH]c(-c3cnccn3)cc2=O)cc1 [Example 29] | 5.00 to 6.00 | 
CN(C)CCCNC(=O)c1ccc(-n2[nH]c(-c3cnccn3)cc2=O)cc1 [Example 30] | > 6.00 | 
O=C(NCCCCN1CCCC1)c1ccc(-n2[nH]c(-c3cc4ccccc4o3)cc2=O)cc1 [Example 31] | 5.00 to 6.00 | 
CN(C)CCCNC(=O)c1ccc(-n2[nH]c(-c3cc4ccccc4o3)cc2=O)cc1 [Example 32] | 5.00 to 6.00 | 
O=C(NCCCNC1CCCCC1)c1ccc(-n2[nH]c(-c3cc4ccccc4o3)cc2=O)cc1 [Example 33] | 5.00 to 6.00 | 
CN1C(C)(C)CC(NC(=O)c2ccc(-n3[nH]c(-c4cc5ccccc5o4)cc3=O)cc2)CC1(C)C [Example 34] | 5.00 to 6.00 | 
CD28: the endogenous protein ligand of CD80 |  | off-rate of CD80-CD28 interaction [3]: greater than 0.2 s^−1; pKd ([3]; read-out: KD of CD80-CD28 interaction): 5.32
